What all share (type): cell-based, human
One assay deals with U251 cells. The experiment in a line: NTA exosome release assay. How it is done:
To investigate the correlation between the malignant transition of hypoxic GMs and their production and release of exosomes, the secretion assay of exosomes was conducted via using nanoparticle tracking analysis (NTA). U251 cells were tested under normoxic or hypoxic condition.
Briefly, a represents Exo-FBS medium, b represents Sodium-L-lactate (20 mM), c represents BAPTA-AM, d represents BAPTA-AM with the pretreatment of Sodium-L-lactate (20 mM). All chemicals were dissolved in the Exo-FBS medium containing 1% DMSO. All data were shown as the mean±SEM. Significance level: **P<0.01, *P<0.05, hypoxia vs. normoxia, No-treatment vs. BAPTA-AM, MCT1 KD virus vs. Empty backbone virus (control 1), CD147 antisense vs. antisense control (control 2).

The next assay relates to GMs. The experiment in a line: Intracellular Ca2+ level (Fluo-4 AM Ca2+ assay / Fura Red imaging). The note with it: FIG. 23B. As to the method:
To further investigate whether the change of intracellular Ca^2+ concentrations could be associated with hypoxia-driven enhanced exosome release, […], AM Ca^2+ imaging and Fluo-4 AM Ca^2+ assay were conducted with normoxic- and hypoxic-U251 cells.
To recapitulate the hypoxia-induced acidic TME, sodium-L-lactates (20 mM) were applied to the culture medium of GMs.

For the next assay, the system named is HIF-1α.

In the case of `CC(=O)OCOC(=O)CN(CC(=O)OCOC(C)=O)c1ccccc1OCCOc1ccccc1N(CC(=O)OCOC(C)=O)CC(=O)OCOC(C)=O` [BAPTA-AM], the exosome release result in the assay with U251 cells (GMs with induction of MCT1 OE and CD147 OE, BAPTA-AM 20 μM, 100 μl added to 2.1 ml medium, FIG. 23A) was “marked decline in exosome release”; in the assay with U251 cells (GMs, lactate-stimulated release, BAPTA-AM with pretreatment of sodium-L-lactate 20 mM, 10 min, FIG. 23C) it was “blocked”; in the assay on U251 cells (hypoxia-enhanced release from U251 cells, intracellular Ca2+ chelated with BAPTA-AM (20 μM)) it was “blocked the enhanced release of exosomes”. Moreover, the “intracellular Ca2+ level” value with GMs (GMs after sodium-L-lactate, BAPTA-AM 20 μM, 100 μl added to 2.1 ml medium) is “distinctive decline in intracellular Ca^2+ level”.

As for `[Cl-].[Cl-].[Co+2]` [CoCl2], in the assay with HIF-1α, the “HIF-1α expression and nuclear localization” value is “increased HIF-1α expression and enhanced nuclear localization of HIF-1α”.

On to `C[C@H](O)C(=O)[O-].[Na+]` [sodium-L-lactate], for which the exosome release entry in the assay with U251 cells (GMs exposed to sodium-L-lactate 20 mM for 10 min, FIG. 23C) is “promote exosome release”. Further, the “intracellular Ca2+ level” value in the assay with GMs (GMs, sodium-L-lactate 20 mM, 100 μl added to 2 ml medium) is “enhanced intracellular Ca^2+ level”.

Source of the values: patent US12392776B2, “Methods and kits for detecting exosomal protein” (City University of Hong Kong, priority 2020, dated 2025).
